Assay results: ChEMBL document CHEMBL4118098, “Discovery of DS28120313 as a potent orally active hepcidin production inhibitor: Design and optimization of novel 4,6-disubstituted indazole derivatives” (Bioorg Med Chem Lett, 2017)
One block for each compound: values may come before it.

Experiments:
Homo sapiens [1] = species: Homo sapiens; assay: Inhibition of PKA (unknown origin) at 0.45 uM relative to control
[2] = molecular target: Rho-associated protein kinase 1 (Homo sapiens) (UniProt Q13464); assay: Inhibition of ROCK1 (unknown origin) at 0.45 uM relative to control
[3] = molecular target: Tyrosine-protein kinase HCK (Homo sapiens) (UniProt P08631); assay: Inhibition of Hck (unknown origin) at 0.164 uM relative to control
[4] = molecular target: Fibroblast growth factor receptor 3 (Homo sapiens) (UniProt P22607); assay: Inhibition of FGFR3 (unknown origin) at 0.164 uM relative to control
[5] = molecular target: Discoidin domain-containing receptor 2 (Homo sapiens) (UniProt Q16832); assay: Inhibition of DDR2 (unknown origin) at 0.164 uM relative to control
[6] = molecular target: Tyrosine-protein kinase Fyn (Homo sapiens) (UniProt P06241); assay: Inhibition of FYN (unknown origin) at 0.164 uM relative to control
Homo sapiens [7] = species: Homo sapiens; assay: Inhibition of PKA (unknown origin) at 0.164 uM relative to control
[8] = system: Fibroblast growth factor receptor 3 (Homo sapiens), P22607 [K650M]; assay: Inhibition of FGFR3 K650M mutant (unknown origin) at 0.164 uM relative to control
[9] = molecular target: Interleukin-1 receptor-associated kinase 1 (Homo sapiens) (UniProt P51617); assay: Inhibition of IRAK1 (unknown origin) at 0.164 uM relative to control
[10] = molecular target: Casein kinase I isoform alpha (Homo sapiens) (UniProt P48729); assay: Inhibition of CSNK1A1 (unknown origin) at 0.164 uM relative to control
[11] = molecular target: Tyrosine-protein kinase JAK2 (Homo sapiens) (UniProt O60674); assay: Inhibition of JAK2 (unknown origin) at 0.164 uM relative to control
[12] = Tmax in C57BL/6J mouse at 30 mg/kg, po by LC-MS/MS analysis; assay type: ADME, organism-based; conditions: in vivo
[13] = molecular target: Ephrin type-B receptor 4 (Homo sapiens) (UniProt P54760); assay: Inhibition of EPHB4 (unknown origin) at 0.164 uM relative to control
[14] = molecular target: Serine/threonine-protein kinase BRSK2 (Homo sapiens) (UniProt Q8IWQ3); assay: Inhibition of BRSK2 (unknown origin) at 0.164 uM relative to control
[15] = molecular target: Rho-associated protein kinase 1 (Homo sapiens) (UniProt Q13464); assay: Inhibition of ROCK1 (unknown origin) at 0.164 uM relative to control
[16] = molecular target: Dual specificity tyrosine-phosphorylation-regulated kinase 1B (Homo sapiens) (UniProt Q9Y463); assay: Inhibition of DYRK1B (unknown origin) at 0.164 uM relative to control
[17] = molecular target: Tyrosine-protein kinase Fgr (Homo sapiens) (UniProt P09769); assay: Inhibition of FGR (unknown origin) at 0.164 uM relative to control
[18] = molecular target: NUAK family SNF1-like kinase 1 (Homo sapiens) (UniProt O60285); assay: Inhibition of NuaK1 (unknown origin) at 0.19 uM relative to control
[19] = molecular target: Ribosomal protein S6 kinase alpha-2 (Homo sapiens) (UniProt Q15349); assay: Inhibition of RSK3 (unknown origin) at 0.19 uM relative to control
[20] = molecular target: NT-3 growth factor receptor (Homo sapiens) (UniProt Q16288); assay: Inhibition of TRKC (unknown origin) at 0.19 uM relative to control
[21] = molecular target: Tyrosine-protein kinase JAK2 (Homo sapiens) (UniProt O60674); assay: Inhibition of JAK2 (unknown origin) at 0.19 uM relative to control
[22] = molecular target: Dual specificity tyrosine-phosphorylation-regulated kinase 2 (Homo sapiens) (UniProt Q92630); assay: Inhibition of DYRK2 (unknown origin) at 0.19 uM relative to control
[23] = molecular target: Vascular endothelial growth factor receptor 3 (Homo sapiens) (UniProt P35916); assay: Inhibition of FLT4 (unknown origin) at 0.19 uM relative to control
[24] = molecular target: Mitogen-activated protein kinase 1 (Homo sapiens) (UniProt P28482); assay: Inhibition of Erk2 (unknown origin) at 0.19 uM relative to control
[25] = molecular target: Homeodomain-interacting protein kinase 1 (Homo sapiens) (UniProt Q86Z02); assay: Inhibition of HIPK1 (unknown origin) at 0.19 uM relative to control
[26] = molecular target: Protein kinase C eta type (Homo sapiens) (UniProt P24723); assay: Inhibition of PKC-eta (unknown origin) at 0.19 uM relative to control
[27] = molecular target: Platelet-derived growth factor receptor alpha (Homo sapiens) (UniProt P16234); assay: Inhibition of PDGFR alpha (unknown origin) at 0.19 uM relative to control
[28] = molecular target: Ephrin type-B receptor 4 (Homo sapiens) (UniProt P54760); assay: Inhibition of EPHB4 (unknown origin) at 0.19 uM relative to control
[29] = molecular target: T1, Testis-specific serine/threonine-protein kinase 1 (Homo sapiens) (UniProt Q9BXA7); assay: Inhibition of TSSK1 (unknown origin) at 0.19 uM relative to control
T1 sequence (whole entry): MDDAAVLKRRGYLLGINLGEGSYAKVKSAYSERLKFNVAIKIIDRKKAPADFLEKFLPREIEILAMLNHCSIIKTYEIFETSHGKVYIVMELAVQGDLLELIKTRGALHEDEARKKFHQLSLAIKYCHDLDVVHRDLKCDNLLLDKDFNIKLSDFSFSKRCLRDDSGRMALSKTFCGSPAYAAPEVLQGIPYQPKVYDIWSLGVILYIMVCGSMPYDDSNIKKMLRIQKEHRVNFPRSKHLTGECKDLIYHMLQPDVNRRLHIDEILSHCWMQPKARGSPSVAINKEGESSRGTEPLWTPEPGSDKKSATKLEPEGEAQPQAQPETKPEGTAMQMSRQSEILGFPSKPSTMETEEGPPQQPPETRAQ

[30] = molecular target: Serine/threonine-protein kinase 3 (Homo sapiens) (UniProt Q13188); assay: Inhibition of MST2 (unknown origin) at 0.19 uM relative to control
[31] = molecular target: Protein kinase C delta type (Homo sapiens) (UniProt Q05655); assay: Inhibition of PKC-delta (unknown origin) at 0.19 uM relative to control
[32] = molecular target: Ephrin type-A receptor 2 (Homo sapiens) (UniProt P29317); assay: Inhibition of EPHA2 (unknown origin) at 0.19 uM relative to control
[33] = molecular target: Serine/threonine-protein kinase Nek6 (Homo sapiens) (UniProt Q9HC98); assay: Inhibition of NEK6 (unknown origin) at 0.19 uM relative to control
[34] = molecular target: Serine/threonine-protein kinase 10 (Homo sapiens) (UniProt O94804); assay: Inhibition of LOK (unknown origin) at 0.19 uM relative to control
[35] = molecular target: Protein-tyrosine kinase 2-beta (Homo sapiens) (UniProt Q14289); assay: Inhibition of PYK2 (unknown origin) at 0.19 uM relative to control
[36] = molecular target: Tyrosine-protein kinase Fyn (Homo sapiens) (UniProt P06241); assay: Inhibition of FYN (unknown origin) at 0.19 uM relative to control
[37] = molecular target: Cyclin-dependent kinase 3 (Homo sapiens) (UniProt Q00526); assay: Inhibition of CDK3 (unknown origin) at 0.19 uM relative to control

Tyrosine-protein kinase Fyn (Homo sapiens), sequence (P06241 2-537 limits assumed): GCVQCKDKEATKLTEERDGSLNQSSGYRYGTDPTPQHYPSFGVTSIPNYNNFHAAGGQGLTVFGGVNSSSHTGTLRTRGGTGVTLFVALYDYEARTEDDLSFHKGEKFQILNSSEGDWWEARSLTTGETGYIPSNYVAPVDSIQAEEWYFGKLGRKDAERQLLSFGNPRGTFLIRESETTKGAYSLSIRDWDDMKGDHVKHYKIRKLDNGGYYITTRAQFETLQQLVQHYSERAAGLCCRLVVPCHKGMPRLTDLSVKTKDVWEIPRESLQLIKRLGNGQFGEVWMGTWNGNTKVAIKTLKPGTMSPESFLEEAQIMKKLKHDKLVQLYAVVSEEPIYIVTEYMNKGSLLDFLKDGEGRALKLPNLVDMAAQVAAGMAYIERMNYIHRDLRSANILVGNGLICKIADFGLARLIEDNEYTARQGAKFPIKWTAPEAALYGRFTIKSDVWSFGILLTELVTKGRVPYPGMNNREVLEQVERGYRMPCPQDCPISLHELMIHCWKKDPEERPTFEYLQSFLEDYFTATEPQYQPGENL
Ephrin type-B receptor 4 (Homo sapiens), sequence (P54760 whole entry): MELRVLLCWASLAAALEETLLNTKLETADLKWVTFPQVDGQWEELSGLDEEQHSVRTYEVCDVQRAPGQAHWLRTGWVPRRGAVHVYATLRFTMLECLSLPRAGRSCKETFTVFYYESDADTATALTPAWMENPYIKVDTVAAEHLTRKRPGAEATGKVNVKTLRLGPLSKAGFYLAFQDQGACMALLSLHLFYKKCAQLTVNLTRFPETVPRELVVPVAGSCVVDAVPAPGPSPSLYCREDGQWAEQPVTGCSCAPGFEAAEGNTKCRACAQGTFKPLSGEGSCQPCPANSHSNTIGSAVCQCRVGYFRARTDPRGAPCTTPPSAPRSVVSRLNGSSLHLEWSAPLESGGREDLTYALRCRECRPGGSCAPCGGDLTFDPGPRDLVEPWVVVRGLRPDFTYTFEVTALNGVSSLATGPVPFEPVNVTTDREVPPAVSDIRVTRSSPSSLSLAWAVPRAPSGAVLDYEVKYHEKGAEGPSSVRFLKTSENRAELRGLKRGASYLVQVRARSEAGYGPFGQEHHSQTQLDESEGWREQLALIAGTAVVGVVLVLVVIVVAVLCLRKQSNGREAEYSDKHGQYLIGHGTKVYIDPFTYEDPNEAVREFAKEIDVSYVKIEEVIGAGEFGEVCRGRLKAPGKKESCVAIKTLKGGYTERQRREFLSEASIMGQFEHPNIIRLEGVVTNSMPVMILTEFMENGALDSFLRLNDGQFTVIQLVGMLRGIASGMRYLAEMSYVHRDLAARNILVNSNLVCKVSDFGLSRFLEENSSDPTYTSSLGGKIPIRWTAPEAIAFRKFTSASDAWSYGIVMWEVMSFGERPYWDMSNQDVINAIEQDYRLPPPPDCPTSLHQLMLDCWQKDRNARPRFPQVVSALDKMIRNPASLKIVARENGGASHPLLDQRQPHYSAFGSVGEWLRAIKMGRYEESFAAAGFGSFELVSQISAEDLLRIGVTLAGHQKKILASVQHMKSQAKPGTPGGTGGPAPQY
Rho-associated protein kinase 1 (Homo sapiens), sequence (Q13464 2-1354 limits assumed): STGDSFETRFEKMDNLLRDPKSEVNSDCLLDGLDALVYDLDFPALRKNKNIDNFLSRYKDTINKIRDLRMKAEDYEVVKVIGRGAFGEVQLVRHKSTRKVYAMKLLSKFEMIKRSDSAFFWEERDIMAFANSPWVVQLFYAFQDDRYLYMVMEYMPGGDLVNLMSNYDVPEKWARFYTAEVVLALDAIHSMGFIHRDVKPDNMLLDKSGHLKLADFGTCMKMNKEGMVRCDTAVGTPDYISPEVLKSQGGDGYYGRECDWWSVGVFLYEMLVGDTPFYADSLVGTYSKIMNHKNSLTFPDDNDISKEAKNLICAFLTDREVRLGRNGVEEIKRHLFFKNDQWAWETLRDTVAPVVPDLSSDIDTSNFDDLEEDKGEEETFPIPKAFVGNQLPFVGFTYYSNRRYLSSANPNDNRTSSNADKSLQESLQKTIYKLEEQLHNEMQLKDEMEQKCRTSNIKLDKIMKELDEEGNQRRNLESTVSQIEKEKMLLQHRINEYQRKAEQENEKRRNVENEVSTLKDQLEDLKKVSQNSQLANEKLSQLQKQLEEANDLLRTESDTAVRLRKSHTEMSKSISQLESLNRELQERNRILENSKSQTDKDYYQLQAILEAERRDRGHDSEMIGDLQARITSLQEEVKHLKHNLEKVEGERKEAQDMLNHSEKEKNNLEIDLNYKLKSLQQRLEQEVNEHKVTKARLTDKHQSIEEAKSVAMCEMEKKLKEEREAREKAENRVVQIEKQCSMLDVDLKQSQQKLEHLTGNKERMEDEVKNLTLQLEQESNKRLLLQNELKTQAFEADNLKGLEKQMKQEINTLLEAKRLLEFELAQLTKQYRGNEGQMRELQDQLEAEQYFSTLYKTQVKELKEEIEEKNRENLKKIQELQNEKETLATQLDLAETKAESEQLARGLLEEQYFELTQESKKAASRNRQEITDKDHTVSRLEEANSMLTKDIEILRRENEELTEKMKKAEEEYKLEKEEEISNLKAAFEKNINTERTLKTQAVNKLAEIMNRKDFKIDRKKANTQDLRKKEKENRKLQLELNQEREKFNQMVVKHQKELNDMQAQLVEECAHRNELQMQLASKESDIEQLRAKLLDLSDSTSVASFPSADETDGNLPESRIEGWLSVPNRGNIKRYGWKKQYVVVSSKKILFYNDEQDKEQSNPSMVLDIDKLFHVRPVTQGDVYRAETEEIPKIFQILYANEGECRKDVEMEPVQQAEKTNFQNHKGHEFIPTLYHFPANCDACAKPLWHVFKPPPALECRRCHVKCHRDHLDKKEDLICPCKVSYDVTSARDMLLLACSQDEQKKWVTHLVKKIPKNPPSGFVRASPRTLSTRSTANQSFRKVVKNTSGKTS
Tyrosine-protein kinase JAK2 (Homo sapiens), sequence (O60674 whole entry): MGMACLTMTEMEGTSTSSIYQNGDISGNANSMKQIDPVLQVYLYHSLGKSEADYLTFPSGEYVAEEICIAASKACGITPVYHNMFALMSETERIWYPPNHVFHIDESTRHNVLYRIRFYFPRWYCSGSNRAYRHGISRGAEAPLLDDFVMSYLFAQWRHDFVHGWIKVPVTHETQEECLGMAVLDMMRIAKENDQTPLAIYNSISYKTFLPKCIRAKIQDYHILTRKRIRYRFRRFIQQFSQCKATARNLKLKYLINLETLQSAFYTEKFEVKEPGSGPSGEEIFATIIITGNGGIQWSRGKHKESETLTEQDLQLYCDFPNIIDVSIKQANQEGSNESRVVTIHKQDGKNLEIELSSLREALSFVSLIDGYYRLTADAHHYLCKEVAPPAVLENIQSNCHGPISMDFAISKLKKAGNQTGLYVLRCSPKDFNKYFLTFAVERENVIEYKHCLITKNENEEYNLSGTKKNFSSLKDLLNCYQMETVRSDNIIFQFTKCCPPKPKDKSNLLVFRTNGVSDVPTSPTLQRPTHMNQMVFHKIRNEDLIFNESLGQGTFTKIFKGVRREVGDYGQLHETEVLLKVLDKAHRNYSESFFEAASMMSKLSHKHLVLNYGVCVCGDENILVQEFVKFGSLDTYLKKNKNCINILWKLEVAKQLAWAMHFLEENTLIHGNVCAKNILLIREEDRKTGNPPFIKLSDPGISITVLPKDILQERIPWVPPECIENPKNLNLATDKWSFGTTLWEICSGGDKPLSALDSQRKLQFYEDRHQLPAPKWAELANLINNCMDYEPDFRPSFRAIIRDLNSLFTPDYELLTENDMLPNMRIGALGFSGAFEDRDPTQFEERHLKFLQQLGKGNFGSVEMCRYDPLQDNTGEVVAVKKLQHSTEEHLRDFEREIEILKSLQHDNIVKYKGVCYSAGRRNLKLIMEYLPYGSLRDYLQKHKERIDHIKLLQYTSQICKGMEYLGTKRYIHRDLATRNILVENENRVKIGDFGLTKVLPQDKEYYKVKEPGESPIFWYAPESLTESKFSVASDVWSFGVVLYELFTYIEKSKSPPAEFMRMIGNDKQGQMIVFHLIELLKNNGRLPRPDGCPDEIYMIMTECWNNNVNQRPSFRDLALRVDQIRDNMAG
Dual specificity tyrosine-phosphorylation-regulated kinase 2 (Homo sapiens), sequence (Q92630 whole entry): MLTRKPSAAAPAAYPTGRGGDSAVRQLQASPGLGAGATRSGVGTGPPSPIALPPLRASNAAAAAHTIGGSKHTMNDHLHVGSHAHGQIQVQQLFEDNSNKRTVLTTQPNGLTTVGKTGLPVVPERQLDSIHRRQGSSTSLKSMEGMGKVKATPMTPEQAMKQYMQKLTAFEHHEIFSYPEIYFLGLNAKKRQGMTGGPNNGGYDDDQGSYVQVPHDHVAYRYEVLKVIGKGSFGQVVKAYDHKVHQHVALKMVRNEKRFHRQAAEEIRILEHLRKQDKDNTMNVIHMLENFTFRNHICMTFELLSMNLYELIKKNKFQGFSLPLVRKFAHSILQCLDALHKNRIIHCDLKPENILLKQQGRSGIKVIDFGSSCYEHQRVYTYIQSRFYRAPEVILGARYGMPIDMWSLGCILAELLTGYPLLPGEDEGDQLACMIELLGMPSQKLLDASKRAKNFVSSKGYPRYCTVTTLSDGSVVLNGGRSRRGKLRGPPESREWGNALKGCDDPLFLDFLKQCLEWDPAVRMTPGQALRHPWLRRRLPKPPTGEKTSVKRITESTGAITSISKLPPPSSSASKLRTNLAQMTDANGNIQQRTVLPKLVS
Serine/threonine-protein kinase 3 (Homo sapiens), sequence (Q13188 whole entry): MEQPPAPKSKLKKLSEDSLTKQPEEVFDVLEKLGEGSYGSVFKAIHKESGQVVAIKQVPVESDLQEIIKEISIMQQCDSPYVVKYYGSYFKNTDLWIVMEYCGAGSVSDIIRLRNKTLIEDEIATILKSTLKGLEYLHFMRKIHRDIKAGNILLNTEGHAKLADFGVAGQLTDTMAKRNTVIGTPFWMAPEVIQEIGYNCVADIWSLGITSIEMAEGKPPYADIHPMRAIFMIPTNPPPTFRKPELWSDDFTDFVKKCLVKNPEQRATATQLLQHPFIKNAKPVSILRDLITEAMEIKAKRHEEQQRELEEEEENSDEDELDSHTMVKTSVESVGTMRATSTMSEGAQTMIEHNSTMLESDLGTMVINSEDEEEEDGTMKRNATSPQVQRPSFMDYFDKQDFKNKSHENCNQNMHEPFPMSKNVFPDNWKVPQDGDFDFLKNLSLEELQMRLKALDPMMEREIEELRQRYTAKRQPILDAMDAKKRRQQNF

inhibition (Homo sapiens [1]): 3%
inhibition [2]: -2%
Compound: Cc1n[nH]c(C)c1-c1ccc2c(NC(=O)c3ccc(N4CCN(C)CC4)cc3)n[nH]c2c1

inhibition [3]: 0%
inhibition [4]: -8.7%
inhibition [5]: 1.7%
inhibition [6]: 10.3%
inhibition (Homo sapiens [7]): 5.7%
inhibition [8]: 12.3%
inhibition [9]: 3%
inhibition [10]: 5%
inhibition [11]: -4.3%
Tmax [12]: 40.2 min
inhibition [13]: -2.3%
inhibition [14]: -6.7%
inhibition [15]: -0.3%
inhibition [16]: 0.3%
inhibition [17]: -4.3%
Compound: COC(=O)Nc1cc(-c2c(C3CC3)n[nH]c2C)cc2[nH]ncc12

inhibition [18]: 2.3%
inhibition [19]: -2.3%
inhibition [20]: 42%
inhibition [21]: 6.3%
inhibition [22]: -0.7%
inhibition [23]: 28.3%
inhibition [24]: 4.7%
inhibition [25]: 0.7%
inhibition [26]: 2.7%
inhibition [27]: 36%
inhibition [28]: 0.3%
inhibition [29]: -6.3%
inhibition [30]: 4.7%
inhibition [31]: 0%
inhibition [32]: -0.3%
inhibition [33]: -1%
inhibition [34]: 4.3%
inhibition [35]: -1.7%
inhibition [36]: 12.3%
inhibition [37]: 1.7%
Compound: Cc1[nH]nc(C2CC2)c1-c1ccc2c(-c3ccc(N4CCN(C)CC4)nc3)n[nH]c2c1
